Measurements taken from patent publication US5068247A, “2-aminopentanoic acid compounds and their use as immunosuppressants” (priority 1989, dated 1991).
Values after ≈ are worked out from the molar mass of the structure shown. Where two headings read alike, the source gives them in different places.

Assays:
Format in all cases: cell-based
[1] = test system: IL-3 production in PHA-stimulated mouse spleen cells; assay: suppression of IL-3 production in PHA-stimulated mouse spleen cells; details: for inhibition at 0.001 µg/mL / inhibition at 0.01 µg/mL / inhibition at 0.1 µg/mL / inhibition at 1 µg/mL: Mus musculus, 24 h, read-out: Suppression
Description: (§1) The suppression of IL-2 and IL-3 production in the mitogen-stimulated mouse spleen cells was examined as follows:
(§2) The spleen was resected from 5- to 8-week-old male C3H/HeN mice, and a single cell suspension of spleen cells was prepared by using the RPMI1640 culture medium. After hemolytic treatment, the concentration of the suspension was adjusted to 10^7 cells/ml by using the RPMI1640 culture medium supplemented with 20% FCS, to which 10 μg/ml of phytohemagglutinin (PHA) was added as mitogen. […] After termination of culture, the supernatant was collected and used as the culture supernatant of PHA-stimulated mouse spleen cells.
The IL-3 activity was assayed as follows:
(§3) IL-3-dependent mouse cell line FDC-P2 cells were suspended in the RPMI1640 culture medium supplemented with 10% FCS to the concentration of 2×10^5 cells/ml. One hundred μl of the cell suspension and 100 μl of the two-fold serial dilution of the culture supernatant of PHA-stimulated mouse spleen cells described above were added to a 96-well flat-bottomed microtest plate. […] The IL-3 activity is expressed in U/ml as the dilution at which the absorbancy measured by MTT method was 50% of the maximum.

[2] = test system: mouse allogenic MLR (BALB/c mouse spleen cells stimulated with C57BL/6 mouse spleen cells); assay: mouse allogenic mixed lymphocyte reaction (MLR), 3H-thymidine uptake; details: for inhibition at 0.0001 µg/mL / inhibition at 0.001 µg/mL / inhibition at 0.01 µg/mL / inhibition at 0.1 µg/mL / inhibition at 1 µg/mL / IC50: Mus musculus, Lymphocyte; for inhibition at 0.0001 µg/mL / inhibition at 0.001 µg/mL / inhibition at 0.01 µg/mL / inhibition at 0.1 µg/mL / inhibition at 1 µg/mL: read-out: Suppression; for IC50: read-out: 50%-inhibition concentration (IC50) in mouse allogenic MLR
In short: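 BALB/c responder spleen cells were mixed in equal amounts with mitomycin C-treated (40 μg/ml, 60 min, 37 °C) C57BL/6 stimulator spleen cells, each at 10^7 cells/ml in RPMI1640 with 20% FCS and 10^-4 M 2-mercaptoethanol. Blastogenesis was read as 3H-thymidine uptake (18.5 KBq/well, 4 h) after culture and expressed as % suppression. Compounds were dissolved in methanol, then diluted in medium.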

[3] = test system: IL-2 production in PHA-stimulated mouse spleen cells; assay: suppression of IL-2 production in PHA-stimulated mouse spleen cells; details: for inhibition at 0.001 µg/mL / inhibition at 0.01 µg/mL / inhibition at 0.1 µg/mL / inhibition at 1 µg/mL: Mus musculus, 24 h, read-out: Suppression
Description: as §1, §2
The IL-2 activity in the culture supernatant of PHA-stimulated mouse spleen cells was assayed as follows:
as §3, with “IL-2 dependent” for “IL-3-dependent”, “CTLL-2” for “FDC-P2”, “30%” for “10%”, “cells” for “cells described above”, “IL-2” for “IL-3”

[4] = test system: CTLL-2 cells; assay: suppression of proliferation of IL-2-dependent mouse cell line CTLL-2 induced by IL-2; details: IL-2 50 U/ml
Description: IL-2-dependent mouse cell line CTLL-2 cells were suspended in the RPMI1640 culture medium supplemented with 30% FCS to the concentration of 4×10^5 cells/ml. Fifty μl of the cell suspension, 50 μl of 200 U/ml recombinant human IL-2 (rhIL-2) and 100 μl of the test substance were added to a 96-well flat-bottomed microtest plate. […] The percent suppression (%) was calculated by the following formula. [formula]

CCCCCCCCCCCCC/C=C/C[C@@H](O)[C@H](O)[C@@](N)(CO)C(=O)O [Example 5]
IL-3 activity ([1]; 0.001 μg/ml): 22.0 U/ml | IL-3 activity ([1]; 0.01 μg/ml): 13.2 U/ml | IL-3 activity ([1]; 0.1 μg/ml): 12.0 U/ml | IL-3 activity ([1]; 1 μg/ml): 9.5 U/ml | inhibition at 0.001 µg/mL ([1]; 0.001 μg/ml): 10.2% | inhibition at 0.01 µg/mL ([1]; 0.01 μg/ml): 10.2% | inhibition at 0.1 µg/mL ([1]; 0.1 μg/ml): 51% | inhibition at 1 µg/mL ([1]; 1 μg/ml): 62.2% | 3H-thymidine uptake ([2]; 0.0001 μg/ml, Table 1A): 15747 cpm | 3H-thymidine uptake ([2]; 0.0001 μg/ml, Table 1B): 4485 ± 812 cpm | Suppression ([2]; 0.0001 μg/ml, Table 1B): 18.1% | 3H-thymidine uptake ([2]; 0.001 μg/ml, Table 1A): 2384 cpm | 3H-thymidine uptake ([2]; 0.001 μg/ml, Table 1B): 6101 ± 356 cpm | Suppression ([2]; 0.001 μg/ml, Table 1B): 0% | 3H-thymidine uptake ([2]; 0.01 μg/ml, Table 1A): 1421 cpm | 3H-thymidine uptake ([2]; 0.01 μg/ml, Table 1B): 1013 ± 314 cpm | 3H-thymidine uptake ([2]; 0.1 μg/ml, Table 1A): 1091 cpm | 3H-thymidine uptake ([2]; 0.1 μg/ml, Table 1B): 359 ± 54 cpm | 3H-thymidine uptake ([2]; 1 μg/ml, Table 1A): 1163 cpm | 3H-thymidine uptake ([2]; 1 μg/ml, Table 1B): 52 ± 24 cpm | inhibition at 0.0001 µg/mL ([2]; 0.0001 μg/ml, Table 1A): 16% | inhibition at 0.001 µg/mL ([2]; 0.001 μg/ml, Table 1A): 95.5% | inhibition at 0.01 µg/mL ([2]; 0.01 μg/ml, Table 1A): 100% | inhibition at 0.01 µg/mL ([2]; 0.01 μg/ml, Table 1B): 92.2% | inhibition at 0.1 µg/mL ([2]; 0.1 μg/ml, Table 1A): 100% | inhibition at 0.1 µg/mL ([2]; 0.1 μg/ml, Table 1B): 100% | inhibition at 1 µg/mL ([2]; 1 μg/ml, Table 1A): 100% | inhibition at 1 µg/mL ([2]; 1 μg/ml, Table 1B): 100% | IC50 [2]: 0.00025 µg/mL (≈ 0.000645 µM) | IL-2 activity ([3]; 0.001 μg/ml): 8.6 U/ml | IL-2 activity ([3]; 0.01 μg/ml): 4.6 U/ml | IL-2 activity ([3]; 0.1 μg/ml): 4.3 U/ml | IL-2 activity ([3]; 1 μg/ml): 2.7 U/ml | inhibition at 0.001 µg/mL ([3]; 0.001 μg/ml): 36.3% | inhibition at 0.01 µg/mL ([3]; 0.01 μg/ml): 65.9% | inhibition at 0.1 µg/mL ([3]; 0.1 μg/ml): 68.1% | inhibition at 1 µg/mL ([3]; 1 μg/ml): 80% | optical density (OD570) ([4]; 0.01 μg/ml, Table 6B): 0.915 | optical density (OD570) ([4]; 0.1 μg/ml, Table 6B): 0.322 | optical density (OD570) ([4]; 1 μg/ml, Table 6B): 0.239 | inhibition at 0.01 µg/mL ([4]; Mus musculus, CTLL-2, 68 h, 0.01 μg/ml, Table 6B, read-out: Suppression): 4.9% | inhibition at 0.1 µg/mL ([4]; Mus musculus, CTLL-2, 68 h, 0.1 μg/ml, Table 6B, read-out: Suppression): 68.3% | inhibition at 1 µg/mL ([4]; Mus musculus, CTLL-2, 68 h, 1 μg/ml, Table 6B, read-out: Suppression): 77.2%

CCCCCCC1(CCCCCC/C=C/C[C@@H](O)[C@H](O)[C@@](N)(CO)C(=O)O)SCCS1 [Example 3]
IL-3 activity ([1]; 0.001 μg/ml): 42.2 U/ml | IL-3 activity ([1]; 0.01 μg/ml): 45.3 U/ml | IL-3 activity ([1]; 0.1 μg/ml): 42.2 U/ml | IL-3 activity ([1]; 1 μg/ml): 27.9 U/ml | inhibition at 0.001 µg/mL ([1]; 0.001 μg/ml): 0% | inhibition at 0.01 µg/mL ([1]; 0.01 μg/ml): 0% | inhibition at 0.1 µg/mL ([1]; 0.1 μg/ml): 0% | inhibition at 1 µg/mL ([1]; 1 μg/ml): 24.2% | 3H-thymidine uptake ([2]; 0.0001 μg/ml, Table 1A): 17247 cpm | 3H-thymidine uptake ([2]; 0.001 μg/ml, Table 1A): 16263 cpm | 3H-thymidine uptake ([2]; 0.01 μg/ml, Table 1A): 13978 cpm | 3H-thymidine uptake ([2]; 0.1 μg/ml, Table 1A): 14747 cpm | 3H-thymidine uptake ([2]; 1 μg/ml, Table 1A): 631 cpm | inhibition at 0.0001 µg/mL ([2]; 0.0001 μg/ml, Table 1A): 7.1% | inhibition at 0.001 µg/mL ([2]; 0.001 μg/ml, Table 1A): 12.9% | inhibition at 0.01 µg/mL ([2]; 0.01 μg/ml, Table 1A): 26.5% | inhibition at 0.1 µg/mL ([2]; 0.1 μg/ml, Table 1A): 21.9% | inhibition at 1 µg/mL ([2]; 1 μg/ml, Table 1A): 96.2% | IC50 [2]: 0.25 µg/mL (≈ 0.523 µM) | IL-2 activity ([3]; 0.001 μg/ml): 14.9 U/ml | IL-2 activity ([3]; 0.01 μg/ml): 13.9 U/ml | IL-2 activity ([3]; 0.1 μg/ml): 12.6 U/ml | IL-2 activity ([3]; 1 μg/ml): 8.6 U/ml | inhibition at 0.001 µg/mL ([3]; 0.001 μg/ml): 0% | inhibition at 0.01 µg/mL ([3]; 0.01 μg/ml): 0% | inhibition at 0.1 µg/mL ([3]; 0.1 μg/ml): 0% | inhibition at 1 µg/mL ([3]; 1 μg/ml): 28.9% | optical density (OD570) ([4]; 0.001 μg/ml, Table 6A): 0.551 | optical density (OD570) ([4]; 0.01 μg/ml, Table 6A): 0.449 | optical density (OD570) ([4]; 0.1 μg/ml, Table 6A): 0.471 | optical density (OD570) ([4]; 1 μg/ml, Table 6A): 0.152 | inhibition at 0.001 µg/mL ([4]; Mus musculus, CTLL-2, 68 h, 0.001 μg/ml, Table 6A, read-out: Suppression): 6% | inhibition at 0.01 µg/mL ([4]; Mus musculus, CTLL-2, 68 h, 0.01 μg/ml, Table 6A, read-out: Suppression): 23.4% | inhibition at 0.1 µg/mL ([4]; Mus musculus, CTLL-2, 68 h, 0.1 μg/ml, Table 6A, read-out: Suppression): 19.7% | inhibition at 1 µg/mL ([4]; Mus musculus, CTLL-2, 68 h, 1 μg/ml, Table 6A, read-out: Suppression): 74.2%
